Measurements from US20210352895A1, “SYNERGISTIC PESTICIDAL COMPOSITIONS AND METHODS FOR DELIVERY OF ACTIVE INGREDIENTS” (0903608 B.C. Ltd., priority 2018, published 2021).
Read-outs that look alike come from different tables or passages of the source.

Legend:
[1] = system: Fusarium oxysporum; assay: Synergistic Growth Inhibition Assay (MIC / FIC index, resazurin, 96-well) on Fusarium oxysporum; format: cell-based; conditions: for MIC: 48 h
Procedure: (§1) In some embodiments, the synergistic action between the pesticidal active ingredient, and the at least one C4-C10 (or alternatively C11 or C12) saturated or unsaturated aliphatic acid components of the pesticidal compositions according to embodiments of the present disclosure was tested using a Synergistic Growth Inhibition Assay, which is derived from and related to a checkerboard assay as is known in the art for testing of combinations of antimicrobial agents. In the Synergistic Growth Inhibition Assay used in accordance with some embodiments of the present disclosure, multiple dilutions of combinations of pesticidal active ingredient and at least one C4-C10 saturated or unsaturated aliphatic acid agents are tested in individual cells for inhibitory activity against a target pest or pathogenic organism. In one such embodiment, the combinations of pesticidal active ingredient and C4-C10 (or alternatively C11 or C12) saturated or unsaturated aliphatic acid agents may preferably be tested in decreasing concentrations. In a further such embodiment, the combinations of pesticidal active ingredient and C4-C10 (or alternatively C11 or C12) saturated or unsaturated aliphatic acid agents may be tested in increasing concentrations. These multiple combinations of the pesticidal active ingredient and at least one C4-C10 (or alternatively C11 or C12) saturated or unsaturated aliphatic acid agents may be prepared in 96-well microtiter plates. In one such embodiment, the Synergistic Growth Inhibition Assay then comprises rows which each contain progressively decreasing concentrations of the pesticidal active ingredient and one or more C4-C10 (or alternatively C11 or C12) saturated or unsaturated aliphatic acid agents to test for the MIC of the agents in combination at which growth of the target pest or pathogen is inhibited. Thus, each well of the microtiter plate is a unique combination of the two agents, at which inhibitory efficacy of the combination against the target pest or pathogen can be determined.
(§2) In one embodiment according to the present disclosure, for each row of microtiter cells in the Synergistic Growth Inhibition Assay, the FIC index is calculated from the lowest concentration of the pesticidal active ingredient and one or more C4-C10 saturated or unsaturated aliphatic acid agents necessary to inhibit growth of a target pest or pathogen. The FIC of each component is derived by dividing the concentration of the agent present in that well of the microtiter plate by the minimal inhibitory concentration (MIC) needed of that agent alone to inhibit growth of the target pest or pathogen. The FIC index is then the sum of these values for both agents in that well of the microtiter plate. The FIC index is calculated for each row as follows:
(§3) FICindex=MICa/MICA+MICb/MICB
(§4) Fractional inhibitory concentration indices may then used as measure of synergy. […] When the FIC index is equal to 1, the combination is additive.
(§5) Then, serial dilutions of these initial compositions in successive wells in the row of the microtiter plate were used to assay the pesticidal composition under the same conditions to determine the concentration of the composition combining the two agents corresponding to the microtiter well in which growth inhibition of the target pest or organism ceases.
Resazurin dye (also known as Alamar blue dye) was used as an indicator to determine the presence of growth or inhibition of growth of Fusarium oxysporum in the wells of the 96 well microtiter plates used in the exemplary Synergistic Growth Inhibition Assay. In addition to the color change of the resazurin dye in the presence of growth of the Fusarium oxysporum, an optical or visual examination of the microtiter well may also be made to additionally determine the presence of growth or inhibition of growth of the Fusarium oxysporum.

[2] = system: Sclerotinia sclerotiorum; assay: Synergistic Growth Inhibition Assay (MIC / FIC index, resazurin, 96-well) on Sclerotinia sclerotiorum; format: cell-based; conditions: for MIC (A): Compound A alone
Procedure: as §1, §2, §3, §4, §5
Similarly to as described above, Resazurin was used as an indicator of growth or inhibition of growth of Sclerotinia sclerotiorum in the exemplary Synergistic Growth Inhibition Assay. In addition to the color change of the resazurin, an optical or visual examination of the microtiter well may also be made to additionally determine the presence of growth or inhibition of growth of the Sclerotinia sclerotiorum.

[3] = system: Botrytis cinerea; assay: Synergistic Growth Inhibition Assay (MIC / FIC index, resazurin, 96-well) on Botrytis cinerea; format: cell-based; conditions: Botrytis cinerea; for MIC: 48 h
Procedure: as §1, §2, §3, §4, §5
Similarly to as described above, Resazurin was used as an indicator of growth or inhibition of growth of Botrytis cinerea in the exemplary Synergistic Growth Inhibition Assay. In addition to the color change of the resazurin, an optical or visual examination of the microtiter well may also be made to additionally determine the presence of growth or inhibition of growth of the Botrytis cinerea.

[4] = system: Trichoplusia ni; assay: In-vitro insecticidal efficacy of Entrust SC (spinosad) with saturated and unsaturated aliphatic acids on artificial diet, Abbott and Colby formulae; format: in vivo, Trichoplusia ni (cabbage looper); conditions: Entrust SC 0.034 ppm ([…] spinosad); aliphatic acid (salt) 500 ppm; Abbott-corrected
Procedure: An artificial diet suitable for Trichoplusia ni (cabbage looper caterpillar) was prepared from a commercially available general purpose lepidoptera artificial diet premix (General Purpose Lepidoptera Diet available from Frontier Scientific Services, Newark, Del.) mixed in agar media and then heated to liquify the media. The liquid artificial diet media was then used to fill each well of a 96-well treatment plate with 200 uL of artificial diet media, which was allowed to solidify at room temperature and stored at approximately 4 C.
A 20 uL treatment sample of each treatment formulation was then placed on top of the solidified artificial diet media in each well of the 96 well plates and allowed to dry overnight. The following day, one neonate Trichoplusia ni (cabbage looper) larva (hatched from eggs obtained from the Natural Resource Canada insect research facility in Sault-Ste-Marie, ON, Canada) was added to each well of the plate, and their mortality rate was evaluated after 5 days, to determine the insecticidal efficacy of the Entrust® SC treatment alone, each exemplary unsaturated or saturated aliphatic acid (and salt) alone, and each combination of spinosad (as Entrust® SC) and unsaturated or saturated aliphatic acid (and salt). Each experiment contained 3 replicates.
While for SF<1, antagonism is present and for SF=1, the efficacy of the compounds is merely additive.

[5] = Fusarium oxysporum, Compound B alone, Fusarium oxysporum, 48 hours incubation, read-out: MIC (B)
[6] = Sclerotinia sclerotiorum, Compound B alone, Sclerotinia sclerotiorum, incubation period of 7 days, read-out: MIC (B)
[7] = Fusarium oxysporum, Compound B alone, Fusarium oxysporum, incubation period of 48 hours, read-out: MIC (B)
[8] = Sclerotinia sclerotiorum, Compound B alone, Sclerotinia sclerotiorum, 7 days incubation, read-out: MIC (B)
[9] = Compound B alone, 48 hours incubation
[10] = Sclerotinia sclerotiorum, read-out: MIC (B), Compound B alone, Sclerotinia sclerotiorum, 7 days incubation
[11] = Compound A alone, incubation period of 48 hours, read-out: MIC (A)
[12] = Compound A alone, incubation period of 2 days
[13] = Compound A alone, 48 hours incubation
[14] = Compound A alone, incubation period of 48 hours

## CCC(CC)(CC)C(=O)O [2,2-diethylbutyric acid]
[1]; [5]
  MIC: 250 µg/mL
[2]; [6]
  MIC: 250 µg/mL

## CC=CC=CC(=O)O [2,4-Dihexenoic acid]
[3]; Compound B alone, incubation period of 48 hours
  MIC (B): 125 µg/mL

## CCC(O)C(=O)O (centres unmarked) [2-hydroxybutyric acid]
[1]; [5]
  MIC: 5000 µg/mL
[1]; [7]
  MIC: 5000 µg/mL
[2]; [8]
  MIC: 2500 µg/mL
[2]; [6]
  MIC: 2500 µg/mL

## CCCCC(O)C(=O)O (centres unmarked) [2-hydroxyhexanoic acid]
[3]; Compound B alone, 48 hours incubation, read-out: MIC (B)
  MIC: 2500 µg/mL
[3]; Compound B alone, incubation period of 2 days, read-out: MIC (B)
  MIC: 2500 µg/mL
[1]; [5]
  MIC: 2500 µg/mL
[1]; [7]
  MIC: 2500 µg/mL
[2]; [6]
  MIC: 2500 µg/mL

## CCCCCCC(O)C(=O)O (centres unmarked) [2-hydroxyoctanoic acid]
[1]; [5]
  MIC: 625 µg/mL
[1]; [7]
  MIC: 625 µg/mL
[2]; [6]
  MIC: 312 µg/mL

## CC(O)CC(=O)O (centres unmarked) [3-Hydroxybutyric acid, 3-hydroxybutyric acid]
[3]; [9]
  MIC (B): 10000 µg/mL

## CCCC(O)CC(=O)O (centres unmarked) [3-Hydroxyhexanoic acid, 3-hydroxyhexanoic acid]
[3]; [9]
  MIC (B): 2500 µg/mL

## CCCCC=CCC(=O)O [3-Octenoic acid, 3-octenoic acid]
[4]
  Observed Efficacy, W (%): 0%

## CCCC=CCC(=O)O [3-heptanoic acid]
[4]
  Observed Efficacy, W (%): 4.5%

## CCCCCC(O)CC(=O)O (centres unmarked) [3-hydroxyoctanoic acid]
[1]; [7]
  MIC: 1250 µg/mL
[2]; [8]
  MIC: 625 µg/mL
[2]; [6]
  MIC: 625 µg/mL

## CC(C)CC(=O)O [3-methylbutyric acid]
[1]; [5]
  MIC: 625 µg/mL
[2]; [8]
  MIC: 312 µg/mL

## CCCC(C)CC(=O)O (centres unmarked) [3-methylhexanoic acid]
[1]; [5]
  MIC: 125 µg/mL
[2]; [8]
  MIC: 125 µg/mL
[2]; [6]
  MIC: 125 µg/mL

## CCCCCC=CCC(=O)O [3-nonenoic acid]
[4]
  Observed Efficacy, W (%): 9.1%

## CCC(C)CCC(=O)O (centres unmarked) [4-methylhexanoic acid]
[3]; Compound B alone, incubation period of 48 hours, read-out: MIC (B)
  MIC: 156 µg/mL
[1]; [5]
  MIC: 156 µg/mL
[2]; [8]
  MIC: 78.1 µg/mL
[2]; [6]
  MIC: 78.1 µg/mL

## C=CCCCC(=O)O [5-hexenoic acid]
[4]
  Observed Efficacy, W (%): 0%

## C=CCCCCCC(=O)O [7-octenoic acid]
[4]
  Observed Efficacy, W (%): 0%

## C=CCCCCCCCC(=O)O [9-Decenoic acid, 9-decenoic acid]
[4]
  Observed Efficacy, W (%): 4.5%

## O=C(O)CCCCCCCCCO [10-hydroxydecanoic acid]
[3]; read-out: MIC (B), Compound B alone, 48 hours incubation
  MIC: 500 µg/mL
[3]; read-out: MIC (B), Compound B alone, incubation period of 2 days
  MIC: 500 µg/mL
[1]; Fusarium oxysporum, read-out: MIC (B), Compound B alone, Fusarium oxysporum, 48 hours incubation
  MIC: 1000 µg/mL
[2]; [10]
  MIC: 1000 µg/mL

## O=C(O)CCCCCCCCCCCO [12-hydroxydodecanoic acid]
[2]; [10]
  MIC: 100 µg/mL
[2]; Sclerotinia sclerotiorum, read-out: MIC (B), Compound B alone, Sclerotinia sclerotiorum, incubation period of 7 days
  MIC: 100 µg/mL

## C/C=C/C=C/C(=O)[O-].[K+] [(2E,4E)-2,4 hexadienoic acid, K-salt]
[4]
  Observed Efficacy, W (%): 9.1%

## C/C=C/C=C/C(=O)O [(2E,4E)-2,4 hexadienoic acid]
[4]
  Observed Efficacy, W (%): 4.5%

## Cc1cc(C2CC2)nc(Nc2ccccc2)n1 [Cyprodinil, reference compound]
[3]; [11]
  MIC: 9 µg/mL

## CC1COC(Cn2cncn2)(c2ccc(Oc3ccc(Cl)cc3)cc2Cl)O1 (centres unmarked) [Difenoconazole, reference compound]
[3]; [11]
  MIC: 25.5 µg/mL
[3]; [12]
  MIC (A): 51 µg/mL
[1]; [13]
  MIC (A): 51 µg/mL

## CCCCCCCCCCCC(=O)O [Dodecanoic acid, dodecanoic acid]
[4]
  Observed Efficacy, W (%): 0%

## N#Cc1c[nH]cc1-c1cccc2c1OC(F)(F)O2 [Fludioxonil, fludioxonil, reference compound]
[3]; read-out: MIC (A), Compound A alone, incubation period of 2 days
  MIC: 0.164 µg/mL
[2]; Sclerotinia sclerotiorum, read-out: MIC (A), Compound A alone, Sclerotinia sclerotiorum, incubation period of 7 days
  MIC: 0.328 µg/mL

## CC(C)C1C2CCC1c1c(NC(=O)c3cn(C)nc3C(F)F)cccc12 (centres unmarked) [Isopyrazam, reference compound]
[3]; [14]
  MIC (A): 31.25 µg/mL

## C=C(C)[C@@H]1CCC2=CC(=O)C[C@@H](C)[C@]2(C)C1 [Nootkatone (+)]
[3]; [14]
  MIC (A): 125 µg/mL
[1]; Compound A alone, Fusarium oxysporum, incubation period of 48 hours
  MIC (A): 500 µg/mL
[1]; Table 60, Compound A = nootkatone(+), alone or in combination with Compound B, incubation period not stated in table (either 24 hours or 4 days)
  MIC (A): 500 µg/mL

## Cc1cc(C(F)(F)F)nn1CC(=O)N1CCC(c2nc(C3=NOC(c4c(F)cccc4F)C3)cs2)CC1 (centres unmarked) [Oxathiapiprolin, reference compound]
[3]; [14]
  MIC (A): 500 µg/mL

## COC(=O)N(OC)c1ccccc1COc1ccn(-c2ccc(Cl)cc2)n1 [Pyraclostrobin, pyraclostrobin, reference compound]
[3]; Compound A alone, incubation period of 2 days, read-out: MIC (A)
  MIC: 15 µg/mL
[2]; 7 days incubation
  MIC (A): 3.75 µg/mL

## CC(C)(C)C(O)(CCc1ccc(Cl)cc1)Cn1cncn1 (centres unmarked) [Tebuconazole, reference compound]
[3]; [12]
  MIC (A): 112.5 µg/mL
[3]; [14]
  MIC (A): 112.5 µg/mL
[1]; [13]
  MIC (A): 225 µg/mL
[1]; Fusarium oxysporum, Compound A alone, Fusarium oxysporum, incubation period of 48 hours, read-out: MIC (A)
  MIC: 112 µg/mL
[2]; Sclerotinia sclerotiorum, 2-fold dilutions, incubation period of 7 days
  MIC (A): 112.5 µg/mL
